From EPA's ToxValDB 9.5
“And” between values parts separate entries of the source, which are not always exact repeats. Equal values may be shown once.

What was measured:
[1] = tested on: Rattus norvegicus; conditions: for LD50 / LC50: acute
[2] = tested on: Oryctolagus sp.; conditions: for LD50: acute; for NOAEL: reproduction developmental
[3] = developmental, duration: 10 days, oral, gavage, Sprague-Dawley
[4] = reproduction developmental, duration: 10 days, oral, gavage, F, Sprague-Dawley
[5] = chronic, oral, diet, Sprague-Dawley
[6] = subchronic, duration: 90 days, oral, diet, Wistar
[7] = reproduction developmental, oral, gavage, Sprague-Dawley
[8] = subchronic, duration: 13 weeks, oral, gavage, Sprague-Dawley
[9] = reproduction developmental, duration: 4 weeks, inhalation, particle, Sprague-Dawley
[10] = short-term, duration: 4 weeks, oral, diet, Crl:CD(SD)
[11] = short-term, duration: 4 weeks, oral, diet, Sprague-Dawley

Question: `C=C1C2CCC(C2)C1(C)C` (centres undefined) [Camphene] was tested. Which LD50 ([1]; oral, Wistar) did it give?
Answer: The LD50 was greater than 5000 mg/kg.

Question: And the NOAEL [1, 3]?
Answer: The NOAEL was 1000 mg/kg-day.

Question: And the NOAEL [1, 4]?
Answer: Its NOAEL is 250 mg/kg-day.

Question: What about the NOAEL ([1]; short-term, duration: 28 days, oral, gavage, F, Wistar) of the same compound?
Answer: The NOAEL was 250 mg/kg-day.

Question: And the NOAEL ([1]; short-term, duration: 28 days, oral, gavage, M, Wistar)?
Answer: The NOAEL was 62.5 mg/kg-day.

Question: And the LOAEL ([1]; short-term, duration: 28 days, oral, gavage, Wistar)?
Answer: The LOAEL was 1000 mg/kg-day.

Question: What about the LD50 ([2]; dermal, New Zealand) of the same compound?
Answer: The LD50 was greater than 2500 mg/kg.

Question: Which results are given for `CC(C)C(C)(N)C#N` (centres undefined) [2-Amino-2,3-dimethylbutanenitrile]?
Answer: LC50 ([1]; inhalation, Sprague-Dawley): 422 mg/m3 and 335 mg/m3; LD50 ([1]; oral, gavage, Sprague-Dawley): 83 mg/kg; NOAEL ([1]; short-term, duration: 28 days, dermal, occlusive, Charles River (Sprague-Dawley derived)): 3 mg/kg-day; LD50 ([2]; dermal, occlusive, New Zealand): 23 mg/kg

Question: What does the source list for `O=C1c2ccccc2C(=O)N1SC1CCCCC1` [N-(Cyclohexylthio)phthalimide]?
Answer: LOAEL [1, 5]: 150 mg/kg-day; NOAEL [1, 5]: 50 mg/kg-day; LD50 ([2]; dermal, occlusive, New Zealand): > 5010 mg/kg

Question: With `CCCCCCC=O` [Heptanal] as the compound, how does the LC50 ([1]; Inhalation, Sprague-Dawley) read?
Answer: Its LC50 is greater than 4.7 µg/mL.

Question: What about the LD50 ([1]; oral, gavage) of the same compound?
Answer: The LD50 was greater than 5000 mg/kg.

Question: What about the NOAEL ([1]; reproduction developmental, oral, gavage, F, Wistar) of the same compound?
Answer: The NOAEL was 2050 mg/kg-day.

Question: What about the LOAEL [1, 6] of the same compound?
Answer: The LOAEL was 150 mg/kg-day.

Question: And the NOAEL [1, 6]?
Answer: Its NOAEL is 37 mg/kg-day.

Question: What about the LD50 ([2]; dermal) of the same compound?
Answer: Its LD50 is greater than 5000 mg/kg.

Question: With `CCOP(=O)(CN(CCO)CCO)OCC` [Diethyl (N,N-bis(2-hydroxyethyl)amino)methanephosphonate] as the compound, how does the LD50 ([1]; oral, gavage, Sprague-Dawley) read?
Answer: Its LD50 is greater than 5000 mg/kg.

Question: And the LOAEL [1, 7]?
Answer: The LOAEL was greater than 750 mg/kg-day.

Question: What about the NOAEL [1, 7] of the same compound?
Answer: The NOAEL was 750 mg/kg-day.

Question: And the LOAEL [1, 8]?
Answer: Its LOAEL is greater than 500 mg/kg-day.

Question: And the NOAEL [1, 8]?
Answer: The NOAEL was 500 mg/kg-day.

Question: And the LD50 ([2]; dermal)?
Answer: The LD50 was greater than 2000 mg/kg.

Question: And the LD50 ([2]; dermal, Albino)?
Answer: Its LD50 is greater than 2000 mg/kg.

Question: With `CCNc1ccccc1` [N-Ethylaniline] as the compound, how does the LD50 ([1]; dermal) read?
Answer: Its LD50 is 1920 mg/kg.

Question: What about the LC50 ([1]; inhalation, Sprague-Dawley) of the same compound?
Answer: Its LC50 is ≥ 1.13 µg/mL and ≤ 1.48 µg/mL.

Question: And the LD50 ([1]; oral)?
Answer: Its LD50 is 300 mg/kg.

Question: What about the LD50 ([1]; oral, gavage, Sprague-Dawley) of the same compound?
Answer: Its LD50 is ≥ 332 mg/kg and ≤ 402 mg/kg.

Question: And the LD50 ([2]; dermal, New Zealand)?
Answer: The LD50 was greater than 2000 mg/kg.

Question: Which results are given for `[Na+].[S-]c1nc2ccccc2s1` [Sodium 2-mercaptobenzothiolate]?
Answer: LC50 ([1]; inhalation): > 6.5 µg/mL; LC50 ([1]; inhalation, Sprague-Dawley): > 1.3 µg/mL; LD50 ([1]; oral): 4350 mg/kg; LD50 ([1]; oral, Sprague-Dawley): 1480 mg/kg and 4350 mg/kg; LD50 ([2]; dermal): > 7940 mg/kg; LD50 ([2]; dermal, occlusive, New Zealand): > 7940 mg/kg

Question: `CCCCCCCCCCCCN(C)C` [N,N-Dimethyldodecan-1-amine] was tested. Which LD50 ([1]; oral, gavage, Wistar) did it give?
Answer: The LD50 was 1220 mg/kg and 790 mg/kg.

Question: What about the LD50 ([2]; dermal, occlusive, New Zealand) of the same compound?
Answer: Its LD50 is 5000 mg/kg.

Question: With `c1ccc2sc(SN3CCOCC3)nc2c1` [N-Oxydiethylene-2-benzothiazylsulfenamide] as the compound, how does the LC50 ([1]; inhalation, particle) read?
Answer: The LC50 was greater than 151 µg/mL.

Question: What about the LD50 ([1]; oral) of the same compound?
Answer: Its LD50 is 7000 mg/kg.

Question: What about the LD50 ([1]; oral, gavage, Sprague-Dawley) of the same compound?
Answer: Its LD50 is 12600 mg/kg and > 7940 mg/kg.

Question: And the LD50 ([1]; oral, gavage, Wistar)?
Answer: The LD50 was greater than 10000 mg/kg.

Question: And the NOAEL ([1]; developmental, duration: 10 days, oral, gavage)?
Answer: The NOAEL was 1000 mg/kg-day.

Question: And the NOAEL ([1]; developmental, duration: 21 days, oral, diet, Wistar)?
Answer: Its NOAEL is 270 mg/kg-day.

Question: And the LOAEL [1, 9]?
Answer: The LOAEL was 10.2 mg/m3.

Question: What about the NOAEL [1, 9] of the same compound?
Answer: Its NOAEL is 9.8 mg/m3.

Question: And the NOAEL ([1]; reproduction developmental, duration: 10 days, oral, gavage, F)?
Answer: The NOAEL was 100 mg/kg-day.

Question: What about the NOAEL ([1]; reproduction developmental, duration: 21 days, oral, diet, F, Wistar) of the same compound?
Answer: Its NOAEL is 270 mg/kg-day.

Question: What about the LOAEL [1, 10] of the same compound?
Answer: The LOAEL was 500 mg/kg-day.

Question: What about the NOAEL [1, 10] of the same compound?
Answer: Its NOAEL is 200 mg/kg-day.

Question: And the LD50 ([2]; dermal, occlusive, New Zealand)?
Answer: The LD50 was greater than 5010 mg/kg.

Question: And the NOAEL ([2]; duration: 21 days, dermal, New Zealand)?
Answer: Its NOAEL is 2000 mg/kg-day.

Question: Which results are given for `CCCCC(CC)COC(=O)c1c(Br)c(Br)c(Br)c(Br)c1C(=O)OCC(CC)CCCC` (centres undefined) [Bis(2-ethylhexyl) tetrabromophthalate]?
Answer: LD50 ([1]; oral, gavage, Crl:CD(SD)): > 5000 mg/kg; LOAEL [1, 11]: 20000 ppm; NOAEL [1, 11]: 2000 ppm; LD50 ([2]; dermal, New Zealand): > 3090 mg/kg

Question: Which results are given for `CC(C)CC(C)Nc1ccc(Nc2ccccc2)cc1` (centres undefined) [6PPD]?
Answer: LD50 ([1]; oral, Sprague-Dawley): > 5000 mg/kg; LD50 ([1]; oral, gavage, Sprague-Dawley): 3580 mg/kg; NOAEL [1, 3]: > 250 mg/kg-day; NOAEL ([1]; reproduction developmental, duration: 23 weeks, oral, diet, Sprague-Dawley, generation: F0): 100 ppm; NOAEL ([1]; reproduction developmental, duration: 23 weeks, oral, diet, Sprague-Dawley, generation: F1): 1000 ppm; NOAEL ([1]; reproduction developmental, duration: 23 weeks, oral, diet, Sprague-Dawley, generation: F2): 1000 ppm; NOAEL [1, 4]: 50 mg/kg-day; NOAEL ([1]; reproduction developmental, duration: 21 days, oral, gavage, Sprague-Dawley, generation: F0): > 1000 ppm; NOAEL ([1]; reproduction developmental, duration: 21 days, oral, gavage, Sprague-Dawley, generation: F1): > 1000 ppm; LOAEL ([1]; short-term, duration: 4 weeks, inhalation, particle, Sprague-Dawley): 50 mg/m3; NOAEL ([1]; subchronic, duration: 90 days, oral, diet, Sprague-Dawley): 24 mg/kg-day; LD50 ([2]; dermal, occlusive, New Zealand): > 7940 mg/kg; NOAEL ([2]; duration: 13 days, oral, F, New Zealand): 30 mg/kg-day

Question: Which results are given for `CC(C#N)CCC#N` (centres undefined) [2-Methylpentanedinitrile]?
Answer: LD50 ([1]; oral, Sprague-Dawley): 205 mg/kg and ≥ 174 mg/kg and ≤ 243 mg/kg; NOAEL ([1]; short-term, duration: 4 weeks, inhalation, Crl:CD(SD) BR): 25 mg/m3; LD50 ([2]; dermal, New Zealand): 776 mg/kg
